The target of data set [1] is Dihydroorotate dehydrogenase (quinone), mitochondrial (Rattus norvegicus, UniProt Q63707).
Description: Inhibition of rat recombinant DHODH by colorimetric assay
For data set [2] the following is noted: rat, in vivo, po, 5 mg/kg, 8 h.
The nature of a further data set: in vivo. Particulars: Sprague-Dawley, rat, po, 5 mg/kg.
In data set [3] the target is T1, Nuclear receptor subfamily 4immunitygroup A member 1 (Homo sapiens, UniProt P22736). The data set is described as follows: cell-based.
Description: (§1) Agonist activity at Nur77 (unknown origin) by Gal4 hybrid reporter gene assay
For data set [4], the target named is T1, Nuclear receptor subfamily 4immunitygroup A member 1.
Description: as §1
The target in data set [5] is Nuclear receptor subfamily 4 group A member 3 (Homo sapiens, UniProt Q92570).
Chain of Nuclear receptor subfamily 4 group A member 3 (Q92570 whole entry): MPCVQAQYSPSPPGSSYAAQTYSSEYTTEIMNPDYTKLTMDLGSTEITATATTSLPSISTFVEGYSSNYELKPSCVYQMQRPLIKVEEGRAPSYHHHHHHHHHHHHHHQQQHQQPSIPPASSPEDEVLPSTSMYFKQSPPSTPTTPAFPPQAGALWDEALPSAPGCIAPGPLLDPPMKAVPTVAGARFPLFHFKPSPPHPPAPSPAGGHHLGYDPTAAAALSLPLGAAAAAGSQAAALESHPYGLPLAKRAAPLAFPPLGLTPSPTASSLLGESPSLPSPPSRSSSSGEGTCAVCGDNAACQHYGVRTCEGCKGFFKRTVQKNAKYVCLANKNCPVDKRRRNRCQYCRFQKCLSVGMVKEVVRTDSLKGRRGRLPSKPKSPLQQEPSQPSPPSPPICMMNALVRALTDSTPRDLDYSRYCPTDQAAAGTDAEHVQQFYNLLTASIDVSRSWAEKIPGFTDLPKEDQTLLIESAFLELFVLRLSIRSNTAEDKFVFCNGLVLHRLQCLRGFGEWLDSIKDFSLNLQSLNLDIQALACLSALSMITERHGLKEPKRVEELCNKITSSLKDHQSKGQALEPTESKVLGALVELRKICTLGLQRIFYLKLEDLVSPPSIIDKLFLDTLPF
Description: Agonist activity at NOR1 (unknown origin) by Gal4 hybrid reporter gene assay
Data set [6] deals with T2, Thyroid hormone receptor alpha (Homo sapiens, UniProt P10827).
T2 sequence (P10827 whole entry): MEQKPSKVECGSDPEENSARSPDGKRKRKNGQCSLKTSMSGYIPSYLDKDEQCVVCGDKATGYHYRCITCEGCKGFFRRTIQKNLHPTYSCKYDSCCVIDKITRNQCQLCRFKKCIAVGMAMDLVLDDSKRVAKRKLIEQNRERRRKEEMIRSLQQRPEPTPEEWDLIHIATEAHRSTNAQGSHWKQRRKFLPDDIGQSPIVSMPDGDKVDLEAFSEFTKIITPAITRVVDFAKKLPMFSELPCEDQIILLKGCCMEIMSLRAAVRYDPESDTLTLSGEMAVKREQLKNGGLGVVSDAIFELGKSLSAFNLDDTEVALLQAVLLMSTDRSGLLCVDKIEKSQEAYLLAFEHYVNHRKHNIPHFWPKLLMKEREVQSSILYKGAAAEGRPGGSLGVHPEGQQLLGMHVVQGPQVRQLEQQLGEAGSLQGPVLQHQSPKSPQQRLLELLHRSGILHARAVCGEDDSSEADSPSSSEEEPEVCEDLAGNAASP
Description: Agonist activity at human THRalpha-LBD transfected in HEK293T cells co-transfected with pFR-Luc/pRL-SV40 assessed as transfection efficiency by measuring luciferase activity measured after 16 hrs by Gal4 hybrid reporter gene assay

The target in data set [7] is T3, Retinoic acid receptor alpha (Homo sapiens, UniProt P10276).
T3 sequence (P10276 whole entry): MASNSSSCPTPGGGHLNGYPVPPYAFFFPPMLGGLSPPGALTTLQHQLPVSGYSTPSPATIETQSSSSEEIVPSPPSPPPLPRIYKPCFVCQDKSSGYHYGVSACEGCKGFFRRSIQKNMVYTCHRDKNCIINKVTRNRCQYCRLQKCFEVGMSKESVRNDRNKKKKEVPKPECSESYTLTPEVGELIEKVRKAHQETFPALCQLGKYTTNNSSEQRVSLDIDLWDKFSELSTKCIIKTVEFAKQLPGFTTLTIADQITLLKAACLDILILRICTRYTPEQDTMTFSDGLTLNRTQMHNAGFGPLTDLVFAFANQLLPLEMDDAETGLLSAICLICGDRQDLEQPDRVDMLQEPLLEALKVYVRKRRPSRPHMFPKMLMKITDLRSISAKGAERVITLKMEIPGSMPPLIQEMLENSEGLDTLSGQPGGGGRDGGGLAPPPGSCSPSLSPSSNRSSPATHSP
Description: Agonist activity at human RARalpha-LBD transfected in HEK293T cells co-transfected with pFR-Luc/pRL-SV40 assessed as transfection efficiency by measuring luciferase activity measured after 16 hrs by Gal4 hybrid reporter gene assay

The target of data set [8] is T4, Peroxisome proliferator-activated receptor alpha (Homo sapiens, UniProt Q07869).
T4 sequence (Q07869 whole entry): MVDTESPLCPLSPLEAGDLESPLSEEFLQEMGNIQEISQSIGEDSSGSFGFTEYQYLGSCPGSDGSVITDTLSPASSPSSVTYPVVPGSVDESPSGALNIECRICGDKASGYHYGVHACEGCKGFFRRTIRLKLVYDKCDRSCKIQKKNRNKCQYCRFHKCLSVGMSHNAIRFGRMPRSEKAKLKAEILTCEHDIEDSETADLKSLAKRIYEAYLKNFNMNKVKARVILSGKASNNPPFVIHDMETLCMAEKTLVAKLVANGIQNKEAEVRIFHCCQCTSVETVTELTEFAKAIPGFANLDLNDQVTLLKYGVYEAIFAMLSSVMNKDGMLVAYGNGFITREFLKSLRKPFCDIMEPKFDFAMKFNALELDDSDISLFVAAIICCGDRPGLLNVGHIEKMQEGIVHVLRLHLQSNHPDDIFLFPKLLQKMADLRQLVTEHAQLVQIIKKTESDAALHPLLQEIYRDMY
Description: Agonist activity at human PPARalpha-LBD transfected in HEK293T cells co-transfected with pFR-Luc/pRL-SV40 assessed as transfection efficiency by measuring luciferase activity measured after 16 hrs by Gal4 hybrid reporter gene assay

Data set [9] deals with T5, Peroxisome proliferator-activated receptor gamma (Homo sapiens, UniProt P37231).
T5 sequence (P37231 whole entry): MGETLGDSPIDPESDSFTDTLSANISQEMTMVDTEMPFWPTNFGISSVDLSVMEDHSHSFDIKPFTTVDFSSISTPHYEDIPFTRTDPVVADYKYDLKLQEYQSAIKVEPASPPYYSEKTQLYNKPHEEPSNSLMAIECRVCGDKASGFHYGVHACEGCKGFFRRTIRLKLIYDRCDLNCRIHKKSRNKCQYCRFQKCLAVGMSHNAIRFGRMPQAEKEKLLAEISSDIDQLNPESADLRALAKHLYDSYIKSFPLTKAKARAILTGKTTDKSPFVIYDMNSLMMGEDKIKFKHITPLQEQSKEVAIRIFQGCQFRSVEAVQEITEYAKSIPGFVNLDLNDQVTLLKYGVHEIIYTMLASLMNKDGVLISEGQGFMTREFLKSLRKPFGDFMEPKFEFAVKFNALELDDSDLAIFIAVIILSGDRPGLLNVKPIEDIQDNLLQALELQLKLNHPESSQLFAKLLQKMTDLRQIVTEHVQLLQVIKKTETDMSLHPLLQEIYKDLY
Description: Agonist activity at human PPARgamma-LBD transfected in HEK293T cells co-transfected with pFR-Luc/pRL-SV40 assessed as transfection efficiency by measuring luciferase activity measured after 16 hrs by Gal4 hybrid reporter gene assay

The target in a further data set is T6, Vitamin D3 receptor (Homo sapiens, UniProt P11473).
T6 sequence (P11473 whole entry): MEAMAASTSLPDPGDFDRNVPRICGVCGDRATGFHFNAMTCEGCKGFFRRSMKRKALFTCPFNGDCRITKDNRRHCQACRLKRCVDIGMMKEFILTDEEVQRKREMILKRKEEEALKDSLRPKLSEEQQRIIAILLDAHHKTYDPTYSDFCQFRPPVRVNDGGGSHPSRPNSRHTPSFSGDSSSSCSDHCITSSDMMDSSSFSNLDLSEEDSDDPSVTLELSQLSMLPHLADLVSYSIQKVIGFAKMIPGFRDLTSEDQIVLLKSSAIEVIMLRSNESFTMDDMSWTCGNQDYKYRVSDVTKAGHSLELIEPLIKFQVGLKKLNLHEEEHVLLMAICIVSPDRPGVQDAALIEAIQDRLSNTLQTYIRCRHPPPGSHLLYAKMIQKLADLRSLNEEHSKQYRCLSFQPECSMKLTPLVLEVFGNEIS

The next data set deals with T7, Bile acid receptor (Homo sapiens, UniProt Q96RI1).
T7 sequence (Q96RI1 whole entry): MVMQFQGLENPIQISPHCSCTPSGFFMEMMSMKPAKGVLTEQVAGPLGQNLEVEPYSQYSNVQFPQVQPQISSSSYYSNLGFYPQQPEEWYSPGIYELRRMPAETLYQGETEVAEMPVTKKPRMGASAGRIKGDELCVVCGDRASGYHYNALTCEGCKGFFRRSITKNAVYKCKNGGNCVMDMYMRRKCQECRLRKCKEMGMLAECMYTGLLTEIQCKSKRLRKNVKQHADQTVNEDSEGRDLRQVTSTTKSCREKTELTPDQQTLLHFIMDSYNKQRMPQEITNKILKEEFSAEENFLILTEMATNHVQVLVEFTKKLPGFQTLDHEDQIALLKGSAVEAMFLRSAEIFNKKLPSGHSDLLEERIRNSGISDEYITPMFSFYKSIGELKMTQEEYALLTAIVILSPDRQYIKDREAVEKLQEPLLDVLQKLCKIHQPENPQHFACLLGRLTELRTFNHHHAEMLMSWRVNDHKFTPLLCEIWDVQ

Data set [10] deals with T8, Retinoic acid receptor RXR-alpha (Homo sapiens, UniProt P19793).
T8 sequence (P19793 whole entry): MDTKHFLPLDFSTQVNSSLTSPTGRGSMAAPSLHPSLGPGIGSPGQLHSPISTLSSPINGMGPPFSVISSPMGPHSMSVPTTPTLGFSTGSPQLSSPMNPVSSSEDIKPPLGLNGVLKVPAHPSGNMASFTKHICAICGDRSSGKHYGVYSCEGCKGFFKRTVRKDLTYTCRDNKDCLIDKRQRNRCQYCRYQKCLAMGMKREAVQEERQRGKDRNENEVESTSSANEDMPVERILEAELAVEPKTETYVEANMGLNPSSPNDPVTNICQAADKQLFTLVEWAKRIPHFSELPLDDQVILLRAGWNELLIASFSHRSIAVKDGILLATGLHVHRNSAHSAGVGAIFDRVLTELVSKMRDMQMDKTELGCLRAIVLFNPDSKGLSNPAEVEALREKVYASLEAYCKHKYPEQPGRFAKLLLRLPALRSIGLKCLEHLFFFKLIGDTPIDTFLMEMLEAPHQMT
Description: Agonist activity at human RXRalpha-LBD transfected in HEK293T cells co-transfected with pFR-Luc/pRL-SV40 assessed as transfection efficiency by measuring luciferase activity measured after 16 hrs by Gal4 hybrid reporter gene assay

Each structure is given as a SMILES string. Where only a bound is given, the exact number is not on record here.

Usually IC50 stands for the midpoint of a concentration-inhibition curve. Low values mean higher potency, high ones lower potency. Broadly, the Cmax is the highest concentration seen after dosing. By AUC is commonly meant concentration integrated over time. Read a low AUC as less exposure. The term EC50 denotes the midpoint of the concentration-response curve. A low value points to higher potency in that assay.

T1 sequence (P22736 whole entry): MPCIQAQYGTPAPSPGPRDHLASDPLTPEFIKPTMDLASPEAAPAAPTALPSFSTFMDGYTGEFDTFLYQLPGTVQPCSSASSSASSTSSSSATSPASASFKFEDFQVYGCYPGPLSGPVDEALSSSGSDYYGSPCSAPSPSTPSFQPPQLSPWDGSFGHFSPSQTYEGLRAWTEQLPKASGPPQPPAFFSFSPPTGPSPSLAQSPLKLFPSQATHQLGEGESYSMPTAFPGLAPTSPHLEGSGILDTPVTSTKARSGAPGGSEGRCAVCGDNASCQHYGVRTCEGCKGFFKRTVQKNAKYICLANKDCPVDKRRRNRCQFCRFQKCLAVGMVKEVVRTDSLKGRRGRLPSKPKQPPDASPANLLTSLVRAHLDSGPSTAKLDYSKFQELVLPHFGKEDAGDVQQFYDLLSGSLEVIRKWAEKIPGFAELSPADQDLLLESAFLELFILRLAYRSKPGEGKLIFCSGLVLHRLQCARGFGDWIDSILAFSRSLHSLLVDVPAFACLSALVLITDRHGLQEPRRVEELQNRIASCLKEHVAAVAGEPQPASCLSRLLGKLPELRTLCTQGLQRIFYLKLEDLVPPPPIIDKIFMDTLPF
Chain of Dihydroorotate dehydrogenase (quinone), mitochondrial (Q63707 whole entry): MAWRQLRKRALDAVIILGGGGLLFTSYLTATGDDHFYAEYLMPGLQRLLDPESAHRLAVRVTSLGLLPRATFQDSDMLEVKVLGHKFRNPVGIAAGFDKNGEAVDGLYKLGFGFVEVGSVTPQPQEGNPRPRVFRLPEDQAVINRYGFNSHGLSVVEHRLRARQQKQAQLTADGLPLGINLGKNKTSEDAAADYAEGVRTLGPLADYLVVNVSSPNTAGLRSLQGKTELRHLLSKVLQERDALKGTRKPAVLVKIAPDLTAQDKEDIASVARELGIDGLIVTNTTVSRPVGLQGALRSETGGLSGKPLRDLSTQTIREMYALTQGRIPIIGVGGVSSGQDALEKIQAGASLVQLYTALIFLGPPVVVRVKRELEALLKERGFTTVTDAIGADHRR
Description for Bile acid receptor: Agonist activity at human FXR-LBD transfected in HEK293T cells co-transfected with pFR-Luc/pRL-SV40 assessed as transfection efficiency by measuring luciferase activity measured after 16 hrs by Gal4 hybrid reporter gene assay
Description for Vitamin D3 receptor: Agonist activity at human VDR-LBD transfected in HEK293T cells co-transfected with pFR-Luc/pRL-SV40 assessed as transfection efficiency by measuring luciferase activity measured after 16 hrs by Gal4 hybrid reporter gene assay

In the case of `C#CCOc1cccc(-c2ccc(NC(=O)C3=C(C(=O)O)CCC3)c(F)c2)c1`, in [1], half-maximal inhibition (IC50) required 6 µM. In data set [2], this molecule came in with a Cmax of 56 µM. Also, the AUC at 8 h in “in vivo” amounted to 290 µM·h. The same molecule registered an EC50 in data set [3] of 1.4 µM.

Consider `COc1cccc(-c2ccc(NC(=O)C3=C(C(=O)O)CCC3)c(F)c2)c1` [VIDOFLUDIMUS], for which the EC50 in [4] is 3.1 µM; in data set [5] it was 2.9 µM; in [6], above 10 µM; in [7], above 10 µM; in data set [8], above 10 µM; in [9], above 10 µM. Also, the EC50 (on Vitamin D3 receptor; at Bile acid receptor; in data set [10]) was above 10 µM in each case.

These data come from ChEMBL document CHEMBL5380872, “Development of a Potent Nurr1 Agonist Tool for In Vivo Applications” (J Med Chem, 2023).
